{
  "source": "paper PMC4155686",
  "about": "“Oleoyl Coenzyme A Regulates Interaction of Transcriptional Regulator RaaS (Rv1219c) with DNA in Mycobacteria*” (The Journal of Biological Chemistry, 2014)",
  "target": "RaaS (Rv1219c) (Mycobacterium tuberculosis, UniProt O86312)",
  "sequence (O86312 whole entry)": "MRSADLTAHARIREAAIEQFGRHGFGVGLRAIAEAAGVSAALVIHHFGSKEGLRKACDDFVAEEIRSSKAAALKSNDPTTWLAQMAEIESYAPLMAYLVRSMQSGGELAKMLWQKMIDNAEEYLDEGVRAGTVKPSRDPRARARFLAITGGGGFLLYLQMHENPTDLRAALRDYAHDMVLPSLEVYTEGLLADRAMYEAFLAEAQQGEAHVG",
  "experiment": "biochemical",
  "data": [
    {"smiles": "CCCCCCCC/C=C\\CCCCCCCC(=O)SCCNC(=O)CCNC(=O)[C@H](O)C(C)(C)COP(=O)(O)OP(=O)(O)OC[C@H]1O[C@@H](n2cnc3c(N)ncnc32)[C@H](O)[C@@H]1OP(=O)(O)O", "note": "[oleoyl-CoA]", "values": [
      {"measurement": "Kd", "value": "3.65 ± 0.28", "unit": "µM"}
    ]}
  ]
}
